The values that follow come from paper PMC3920478, “Small molecule-mediated refolding and activation of myosin motor function” (eLife, 2014).

One experiment concerns the target T1, Dd myosin-2 motor domain (Dictyostelium discoideum, UniProt P08799).
T1 sequence (P08799 1-761 limits assumed): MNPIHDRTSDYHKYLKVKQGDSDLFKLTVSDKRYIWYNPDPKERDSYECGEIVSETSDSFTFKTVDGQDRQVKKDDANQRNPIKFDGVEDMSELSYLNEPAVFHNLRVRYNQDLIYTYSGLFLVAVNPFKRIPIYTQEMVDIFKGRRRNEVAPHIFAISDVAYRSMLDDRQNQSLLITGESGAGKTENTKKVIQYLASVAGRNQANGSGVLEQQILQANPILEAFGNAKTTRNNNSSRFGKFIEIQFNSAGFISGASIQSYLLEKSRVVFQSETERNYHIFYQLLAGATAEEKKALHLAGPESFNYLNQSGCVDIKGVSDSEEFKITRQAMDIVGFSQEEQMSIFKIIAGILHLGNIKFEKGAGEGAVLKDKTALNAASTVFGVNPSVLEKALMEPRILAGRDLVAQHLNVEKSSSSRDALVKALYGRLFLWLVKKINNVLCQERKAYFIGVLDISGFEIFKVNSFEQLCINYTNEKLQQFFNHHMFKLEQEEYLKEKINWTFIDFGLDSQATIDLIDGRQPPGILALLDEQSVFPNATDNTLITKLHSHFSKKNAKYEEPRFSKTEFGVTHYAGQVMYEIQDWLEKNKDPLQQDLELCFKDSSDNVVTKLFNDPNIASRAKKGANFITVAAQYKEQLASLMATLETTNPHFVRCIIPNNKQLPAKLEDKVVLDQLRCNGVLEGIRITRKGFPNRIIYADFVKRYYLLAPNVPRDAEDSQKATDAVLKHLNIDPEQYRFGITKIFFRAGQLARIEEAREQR
Nature of the experiment: In vitro motility assay (actin filament sliding). In kind it is biochemical. The text has this:
In addition, the fraction of moving filaments increased from <75% to >95%. […] In initial experiments, we determined the minimal concentration of α-actinin molecules that generate sufficient load to stall the movement of actin filaments for a given surface density of myosin heads. […] Next, we generated in vitro motility flow cells with actin filaments held at stall force. […] The time-dependence of the recovery of motile activity is best fit by a hyperbola. A plateau value of 0.4 μm s^−1 is reached after more than 2 hr (Figure 1G).
(§1) Actin-sliding motility was performed at 20°C using an Olympus IX81 (Olympus, Hamburg, Germany) inverted fluorescence microscope as described previously ([Fujita-Becker et al., 2005]). Average sliding velocities were determined from the Gaussian distribution of automatically tracked actin filaments using DiaTrack 3.01 (Semasopht, Chavannes, Switzerland) and Origin 7.0 (OriginLab Corporation, Northampton, MA). Errors indicate standard deviations.

Another experiment addresses T2, Dd myosin-2 ΔSH3 (Dictyostelium discoideum, UniProt P08799, DEL33-79).
T2 construct: Dd myosin-2 ΔSH3, a recombinant motor domain construct that lacks this subdomain; made in house
Nature of the experiment: In vitro motility assay (actin filament sliding). The class given is biochemical. Particulars: 100 µM EMD 57033.
Description: Initial blind docking to homology models of the β-cardiac myosin motor domain in the post-rigor state indicated preferred binding of the drug to a region near the small N-terminal, SH3-like βbarrel subdomain. Important contacts are predicted to involve the SH3-like subdomain (residues 34–72) and two α-helices (residues 20–28 and 98–111). […] The sets of binding poses differ mainly in the orientation of the dimethylated catechol group, occupying either of the two possible branches of the Y, while the thiadiazinone moiety appears little affected and resides in the root of the Y shaped cavity (Figure 2A,B). Potential residues involved in the binding of the thiadiazinone and tetrahydroquinoline moieties of the compound include Arg23, Asp85, Lys86, Asp107, Arg108, and Ser111. The dimethylated catechol moiety is mainly bound by residues Lys34, Lys48, and Gln79, and thus, interacts with the SH3-like β-barrel.
as §1

The test system of a further experiment is dogs with heart failure. Also on record: method as in Senzaki et al., 2000. Particulars: ref Senzaki et al., 2000; cited from earlier work.
The target of the next experiment is β-cardiac myosin (Sus scrofa, UniProt P79293). The experiment is described as follows: Transient kinetics (stopped-flow) of the ATPase cycle. In kind it is biochemical, Porcine. Also on record: β-Cardiac myosin-2 (S1, full-length); from tissue; host or cells: porcine cardiac muscle. The source says: To gain a better understanding of its mechanism of action, we examined the effect of EMD 57033-binding on the kinetic activity of the myosin motor. […] Fast mixing of excess ATP with β-cardiac myosin results in an increase of the protein’s intrinsic tryptophan fluorescence. The kinetic model predicts the double exponential ‘behavior’ of the observed transients to be associated with two discrete processes (Figure 3C). The fast process corresponds to the binding of ATP to the active site. The rate of the slow process saturates at ATP concentrations above 100 µM and can be attributed to the ATP hydrolysis step ([Deacon et al., 2012]). […] Phosphate release is the rate-limiting step of the β-cardiac myosin actin-activated ATPase cycle. It can be monitored by the fluorescence increase that is associated with the much faster binding of phosphate to the A197C mutant of Escherichia coli phosphate binding protein, labeled at Cys197 with the thiol reactive coumarin dye MDCC ([Brune et al., 1994]) (Figure 3F). […] The resulting values for k+4 indicate a 1.7-fold increase in the presence of the small compound.
Sequence of β-cardiac myosin (P79293 whole entry): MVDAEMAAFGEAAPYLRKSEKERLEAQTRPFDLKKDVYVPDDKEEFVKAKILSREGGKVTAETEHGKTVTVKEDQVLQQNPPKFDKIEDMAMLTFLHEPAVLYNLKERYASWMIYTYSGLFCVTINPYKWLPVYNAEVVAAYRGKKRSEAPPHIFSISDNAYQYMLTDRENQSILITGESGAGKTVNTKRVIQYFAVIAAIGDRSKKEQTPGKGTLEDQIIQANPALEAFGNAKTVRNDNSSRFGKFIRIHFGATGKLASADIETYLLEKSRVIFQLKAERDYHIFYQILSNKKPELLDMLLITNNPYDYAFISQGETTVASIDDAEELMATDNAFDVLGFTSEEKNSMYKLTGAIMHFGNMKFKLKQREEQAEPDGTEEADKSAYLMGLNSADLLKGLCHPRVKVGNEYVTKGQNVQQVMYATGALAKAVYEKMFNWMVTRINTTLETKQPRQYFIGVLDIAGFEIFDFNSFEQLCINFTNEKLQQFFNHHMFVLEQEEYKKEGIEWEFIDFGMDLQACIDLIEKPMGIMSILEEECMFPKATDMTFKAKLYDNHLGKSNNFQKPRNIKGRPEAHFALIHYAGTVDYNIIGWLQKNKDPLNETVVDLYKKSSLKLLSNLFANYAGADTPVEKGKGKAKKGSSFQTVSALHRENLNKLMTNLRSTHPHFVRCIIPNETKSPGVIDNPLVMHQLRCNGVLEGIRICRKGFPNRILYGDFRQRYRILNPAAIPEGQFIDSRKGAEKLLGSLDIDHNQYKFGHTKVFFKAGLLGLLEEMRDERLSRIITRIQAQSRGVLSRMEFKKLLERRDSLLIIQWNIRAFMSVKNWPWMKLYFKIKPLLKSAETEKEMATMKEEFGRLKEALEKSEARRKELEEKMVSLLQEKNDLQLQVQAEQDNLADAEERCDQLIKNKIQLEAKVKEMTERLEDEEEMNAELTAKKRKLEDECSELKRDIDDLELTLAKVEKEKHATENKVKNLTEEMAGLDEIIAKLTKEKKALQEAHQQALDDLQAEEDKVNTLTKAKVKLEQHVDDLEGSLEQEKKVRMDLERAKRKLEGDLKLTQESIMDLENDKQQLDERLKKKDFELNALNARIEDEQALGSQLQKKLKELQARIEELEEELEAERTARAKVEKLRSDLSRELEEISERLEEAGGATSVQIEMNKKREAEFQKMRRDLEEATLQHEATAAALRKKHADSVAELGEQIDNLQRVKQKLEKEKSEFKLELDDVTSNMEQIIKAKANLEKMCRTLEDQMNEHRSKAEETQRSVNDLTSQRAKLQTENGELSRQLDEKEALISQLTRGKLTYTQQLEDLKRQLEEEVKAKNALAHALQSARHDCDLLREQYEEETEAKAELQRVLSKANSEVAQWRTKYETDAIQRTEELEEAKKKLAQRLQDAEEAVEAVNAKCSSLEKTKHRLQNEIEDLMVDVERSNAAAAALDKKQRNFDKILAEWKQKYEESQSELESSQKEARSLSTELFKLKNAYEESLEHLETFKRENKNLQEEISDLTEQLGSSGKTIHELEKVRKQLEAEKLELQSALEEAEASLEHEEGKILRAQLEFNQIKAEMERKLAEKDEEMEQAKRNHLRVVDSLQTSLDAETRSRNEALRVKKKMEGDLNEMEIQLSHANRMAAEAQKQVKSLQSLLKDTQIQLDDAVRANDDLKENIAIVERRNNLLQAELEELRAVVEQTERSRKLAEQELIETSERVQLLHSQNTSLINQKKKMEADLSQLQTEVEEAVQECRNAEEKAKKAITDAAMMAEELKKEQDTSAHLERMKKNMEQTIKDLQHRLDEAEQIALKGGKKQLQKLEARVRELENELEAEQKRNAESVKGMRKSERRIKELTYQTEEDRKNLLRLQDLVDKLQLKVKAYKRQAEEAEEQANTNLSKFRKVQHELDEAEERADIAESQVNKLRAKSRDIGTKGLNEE
Stopped-flow experiments were performed using PiStar (Applied Photophysics, Leatherhead, UK) and Hi-Tech SF61 (TgK Scientific Limited, Bradford on Avon, UK) spectrophotometers at 20°C as described previously ([Taft et al., 2008]). Mant-nucleotides (Jena Bioscience, Germany) were excited at 365 nm and detected after passing through a KV 389 nm cut-off filter. Tryptophane fluorescence was excited at 297 nm and detected using a WG 320 nm cut-off filter. Long-time experiments were carried out using a shutter to avoid photo-bleaching. […] Phosphate release was measured using MDCC-PBP (N-[2-(1-maleimidyl)ethyl]-7-(diethylamino)coumarin-3-carboxamide fused to phosphate binding protein; obtained from Life Technologies, Carlsbad, CA) as described previously ([Brune et al., 1994]). Coumarin fluorescence was excited at 430 nm and detected using 455 nm cut-off-filter.

T2 sequence (P08799 other isoform, or with tags, fused parts or gaps DEL33-79): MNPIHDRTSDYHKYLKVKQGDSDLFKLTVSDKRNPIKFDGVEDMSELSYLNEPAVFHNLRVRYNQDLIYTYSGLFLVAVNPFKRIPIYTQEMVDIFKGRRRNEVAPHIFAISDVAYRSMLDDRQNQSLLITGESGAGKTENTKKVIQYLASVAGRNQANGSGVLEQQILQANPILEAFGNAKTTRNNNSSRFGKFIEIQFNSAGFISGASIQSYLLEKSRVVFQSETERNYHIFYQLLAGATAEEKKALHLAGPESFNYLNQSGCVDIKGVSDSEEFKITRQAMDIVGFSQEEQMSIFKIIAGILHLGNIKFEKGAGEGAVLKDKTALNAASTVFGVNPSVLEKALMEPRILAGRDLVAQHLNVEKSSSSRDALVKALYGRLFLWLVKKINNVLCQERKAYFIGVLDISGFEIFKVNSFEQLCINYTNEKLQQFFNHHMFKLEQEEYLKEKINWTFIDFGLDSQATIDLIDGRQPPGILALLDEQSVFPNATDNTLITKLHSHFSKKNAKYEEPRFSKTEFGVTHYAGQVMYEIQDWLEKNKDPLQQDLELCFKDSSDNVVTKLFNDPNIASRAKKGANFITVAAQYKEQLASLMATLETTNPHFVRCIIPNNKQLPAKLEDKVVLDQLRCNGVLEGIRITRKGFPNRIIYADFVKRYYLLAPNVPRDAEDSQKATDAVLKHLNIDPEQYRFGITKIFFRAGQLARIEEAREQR

As to `COc1ccc(C(=O)N2CCCc3cc(C4=NNC(=O)SC4C)ccc32)cc1OC` (stereo not shown) [EMD 57033], the “Increase of actin filament sliding velocity” value on Dd myosin-2 motor domain (100 µM EMD 57033) turned out to be 1.6 fold. The “Average sliding velocity of actin filaments” value at Dd myosin-2 motor domain (in presence of 100 µM EMD 57033) was 1.35 ± 0.2 µm s^−1. On Dd myosin-2 ΔSH3, the “Actin filament sliding velocity enhancement” value is listed as “no actin filament sliding velocity enhancement was observed”. For the same compound, in the experiment with dogs with heart failure, the “Haemodynamic effects in failing heart” value was “potent positive inotropic effects, reduced oxygen cost of contraction, and enhanced diastolic chamber performance”. Also, the “Effect on ADP-release step (k−D, k−AD)” value on β-cardiac myosin is given as “appears unaffected”. For the same compound, the “k+4 (phosphate release)” value at β-cardiac myosin (25 µM EMD 57033, F-Actin 25 µM and 25 µM ATP, MDCC-PBP) turned out to be 0.15 ± 0.01 s⁻¹. In addition, the “k+2 ∼Change (−fold), increase” value at β-cardiac myosin (25 µM EMD 57033 vs control) is recorded as 3.8 fold. At β-cardiac myosin (EMD 57033 vs control), the “k+4 ∼Change (−fold), increase” value was 1.7 fold. At β-cardiac myosin (actin-activated β-cardiac myosin, 25 µM EMD 57033), the “Net change in the rate of ATP turnover, single-turnover mantATP experiment” value was “approximately twofold net increase”. Further, on β-cardiac myosin (in presence of 25 µM EMD 57033), the “k+2 (conformational change after ATP binding)” value amounted to 174 ± 7 s⁻¹; the “k+3 + k−3 (rate of ATP hydrolysis)” value came out at 24.5 ± 1.9 s⁻¹; the “k−AD (ADP release, with actin)” value stood at 26.9 ± 4 s⁻¹; the “k−D (ADP release)” value is 0.16 ± 0.04 s⁻¹.
